Values quoted from earlier work, collected in patent US20210299070A1, “METHODS OF TREATING CREATINE T[…]” (Jnana Therapeutics, Inc., priority 2018, published 2021).

What was measured:
[1] = patients with CID (creatine transporter deficiency); oral supplements
[2] = patients with GAMT or AGAT deficiency; oral supplements

In the case of `CN(CC(=O)O)C(=N)N.O` [creatine monohydrate], the response to treatment [1] is given as “did not respond to treatment” and the clinical symptoms [2] is given as “clinical symptoms improved”.
